We go through ten molecules from patent publication US20250051337A1 (priority 2021, published 2025).

Series [1] concerns ULK1/2 and Aurora kinases. The conditions noted are these: including inhibition of ULK1/2 and Aurora kinases; cited from earlier work.
The target of series [2] is T1, STK4 (Homo sapiens (Human), UniProt Q13043). In words: ADP-Glo kinase assay, STK4. The class given is biochemical. In short, it runs like this:
(§1)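 Full-length recombinant human STK3 (50 ng) phosphorylated 250 μg/mL myelin basic protein, and full-length STK4 (50 ng) phosphorylated 300 μg/mL Axltide, both at 50 μM ATP; ADP formed detected by ADP-Glo. Three experiments, each in triplicate.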
(In ADP-Glo the light output rises with the ADP produced.)

In series [3] the target is T2, STK3 (Homo sapiens (Human), UniProt Q13188). The series is described as follows: ADP-Glo kinase assay, STK3. The class given is biochemical. As to conditions: ADP-Glo, 50 μM ATP; read-out: STK3 IC50. Put shortly: as §1
For series [4], the target named is T2, STK3. In words: NanoBRET intracellular kinase assay, STK3. It is filed as cell-based. On the procedure: (§2) Full-length STK3, STK4, and LRRK2 kinase was cloned in-frame with a C-terminal NanoLuc-fusion (Promega: Madison, WI, USA) and the plasmid was transfected into HEK293T cells using FuGENE HD (Promega, E2312). […] After 2 h at 37° C. in a 5% CO2 atmosphere, NanoBRET NanoGlo Substrate+Extra-cellular NanoLuc Inhibitor (Promega, N2540) was added, and filtered luminescence was measured on a PHERAstar plate reader (BMG Labtech; Ortenberg, Germany) equipped with a lumi-nescence filter pair (450 nm BP filter (donor) and 610 nm LP filter (acceptor)).
(§3) This assay measured the apparent affinity of test compounds by competitive displacement of the NanoBRET™ tracer, reversibly bound to a NanoLuc® luciferase-kinase fusion in cells. To evaluate potential off-target activity of the inhibitors, the inhibition of LRRK2 in live cells by the STK3/4 inhibitors compounds described herein were measured. […] A 50 nM tracer and these compounds were added to cells and incubated for 2 h.

Series [5] concerns the target T1, STK4. The series is described as follows: NanoBRET intracellular kinase assay, STK4. The class given is cell-based. The conditions noted are these: transfected HEK293 cells, 2 h. The protocol: as §2, §3
For orientation: In BRET a luciferase serves as donor, and the signal depends on an acceptor being close.

The target of series [6] is LRRK2 (Homo sapiens (Human), UniProt Q5S007). The series is described as follows: NanoBRET intracellular kinase assay, LRRK2. It is filed as cell-based. As to conditions: transfected HEK293 cells, 2 h. On the procedure:
Full-length STK3, STK4, and LRRK2 kinase was cloned in-frame with a C-terminal NanoLuc-fusion (Promega: Madison, WI, USA) and the plasmid was transfected into HEK293T cells using FuGENE HD (Promega, E2312). After 20 h, transfected cells were mixed with inhibitors and 50 nM NanoBRET Kinase Tracer K10 (Promega) and reseeded at a density of 2× 10^5 cells/mL in Opti-Minimal Essential Medium (MEM) without phenol red (Life Technologies; Carlsbad, CA, USA) in 384-well plates (Greiner 781-207; Kremsmunster, Austria). After 2 h at 37° C. in a 5% CO2 atmosphere, NanoBRET NanoGlo Substrate+Extra-cellular NanoLuc Inhibitor (Promega, N2540) was added, and filtered luminescence was measured on a PHERAstar plate reader (BMG Labtech; Ortenberg, Germany) equipped with a lumi-nescence filter pair (450 nm BP filter (donor) and 610 nm LP filter (acceptor)).
To confirm cellular potency for compounds described herein, the […] were used to detect engagement of STK3 and STK4 in live cells using the NanoBRET™ intracellular kinase assay, marking the first report of a NanoBRET assay for STK3 and STK4. This assay measured the apparent affinity of test compounds by competitive displacement of the NanoBRET™ tracer, reversibly bound to a NanoLuc® luciferase-kinase fusion in cells. To evaluate potential off-target activity of the inhibitors, the inhibition of LRRK2 in live cells by the STK3/4 inhibitors compounds described herein were measured. Cultured HEK293 cells were either transfected with NanoLuc®-STK3 fusion vector, NanoLuc®-STK4 fusion, or with NanoLuc®-LRRK2 vector for 24 h. A 50 nM tracer and these compounds were added to cells and incubated for 2 h. These compounds tested in the assays decreased the NanoBRET™ signal for both STK3 and STK4 at varying potencies and confirming cellular target engagement of STK3/4.

Series [7] relates to phosphorylated MOB1 (Thr35) in HEK293 cells. In words: Western blot analysis of p-MOB1 in HEK293 cells. The class given is cell-based. As to conditions: 10 μM, 4 h, then H2O2 50 μM 2 h, vs DMSO. On the procedure: Cells were harvested by pipetting, pelleted by centrifugation at 1400 rpm for 4 min, and lysed in RIPA buffer for 10 min at room temperature. The lysates were centrifuged at 12,000×g at room temperature (RT) for 10 min and the supernatants were recovered. Protein concentrations in the supernatants were determined using a BCA assay (Pierce/Thermo Scientific). Proteins were separated on NovexTM WedgeWellTM 4-20% Tris-Glycine Gels (Invitrogen; Carlsbad, CA, USA) and transferred to polyvinylidene difluoride (Trans-Blot® TurboTM Transfer Pack) membranes. […] Danvers. MA. USA). Blots were rinsed three times with TBST and then incubated in 5% nonfat milk containing horseradish peroxidase (HRP)-conjugated mouse anti-rabbit IgG secondary Ab (Cell Signaling Technology) for 1 h at RT. Blots were washed three times with TBST, developed using Pierce® ECL Western Blotting reagent, and imaged and analyzed using with ImageJ software. Quantitative data are expressed as the level of phosphorylated MOB1 normalized to total MOB1. To confirm that the cellular mechanism of action of our inhibitors was through inhibition of Hippo pathway signaling. […] Inhibition of STK3/4 in vitro and in vivo can produce decreased phosphorylation of the Hippo pathway adapter protein MOB1 at […].

Series [8] in a line: In vivo plasma and liver concentrations, 20 mg/kg intraperitoneal. As to conditions: female, C57BL/6J, mouse, ip, 20 mg/kg. The protocol: All animal procedures were approved by the Sanford Burnham Prebys Medical Discovery Institute Institutional Animal Care and Use Committee and were performed according to the NIH guidelines for the Care and Use of Laboratory Animals. Adult female C57BL/6J mice were purchased from Jackson Laboratories and housed with free access to food and water on a 12 h light/dark cycle. Compounds were formulated in 5% DMSO, 10% Tween-80, and 85% H2O and injected intraperitoneally at 10 or 20 mg/kg. Blood samples were collected retro-orbitally at the indicated times and plasma was prepared by centrifugation. Livers were collected post mortem at the indicated times.
For quantification of compound, plasma samples were extracted with acetonitrile: water 4:1 with 0.1% formic acid containing indomethacin as an internal standard. Samples were centrifuged and the supernatants were diluted with acetonitrile: water and analyzed by LC-MS/MS using a Shimadzu Nexera X2 High-performance liquid chromatography (HPLC) (Shimadzu Scientific Instruments: Kyoto, Japan) coupled to an AB Sciex 6500 QTRAP (AB Sciex LLC: Toronto, Canada).
Adult female C57BL/6 mice (n=3/group) were intraperitoneally injected with vehicle or test compound (20 mg/kg), and blood samples and livers were collected at 30 min and 1 h post-injection, respectively. Plasma concentrations of all 13 compounds were >1.4 μM at 30 min after injection, and 10 compounds had liver concentrations >1.0 μM at 1 h after injection, as measured by LC-MS/MS, with particularly high plasma concentrations obtained with compounds 11 (15.9 μM), 16 (11.6 μM) and 105 (8.7 μM) (Table 5). To evaluate target engagement in vivo, the total and phosphorylated MOB1 levels in livers collected at 1 h post-injection was examined.
Tween 80 and water and were administered to mice by intraperitoneal injection. Blood samples and livers were collected at 30 min and 1 h post-dose, respectively. Plasma concentrations and relative pMOB1 levels were determined by LC-MS/MS and western blot analysis, respectively. (n=3).

In series [9] the target is T2, STK3. In words: Thermal shift assay (ThermoFluor differential scanning fluorimetry). It is filed as binding. The conditions noted are these: read-out: ΔTm.
Description: Temperature-dependent protein unfolding profiles were measured using a Real-Time PCR Mx3005p machine (Stratagene: San Diego, CA, USA). Data evaluation and melting temperature calculation were performed using Protein Thermal Shift™ Software v1.2.
To further evaluate binding of these compounds to STK3/4, differential scanning fluorimetry (protein thermal shift using ThermoFluor technology) assay was used to benchmark the capacity to stabilize the kinase domain. The melting temperature (Tm) of STK3 or STK4 was measured in the presence of vehicle (DMSO) or 6, 11 or 23.
Series [10] has as its system YAP/TAZ-TEAD activity (8×GTIIC-luciferase) in HEK293 cells. The series is described as follows: YAP-TAZ-TEAD luciferase assay. It is filed as cell-based. The conditions noted are these: 10 μM, 48 h, vs DMSO. On the procedure:
8×GTIIC-luciferase was a gift from Stefano Piccolo (Addgene plasmid #34615, http://n2t.net/addgene: 34615: RRID: Addgene_34615). HEK293 cells were transfected with 8×GTIIC-luciferase plasmid and control Renilla luciferase plasmid using jetPRIME transfection reagent (Polyplus-transfection RSA: New York, NY. USA) for 24 h and cultured in Dulbeco's Modified Eagle Media (DMEM) Glutamax supplemented with 10% Fetal Bovine Serum (FBS), antibiotic/antimycotic, and sodium pyruvate (Gibco. Thermo FisherScientific: Waltham. MA. USA). The transfected cells were treated with 10 μM compound in triplicate and incubated for 48 h at 37° C. Firefly and Renilla luminescence were detected with a Dual-Glo Luciferase Assay System (Promega #E2920) according to the manufacturer's recommendations. The ratio of firefly to Renilla luminescence was calculated for each well and normalized to the ratio in control cells incubated with DMSO.
STK3/4 can negatively regulate the activity of the YAP/TAZ-TEAD protein complex and, accordingly, inactivation of these kinases reduces the transcription of YAP/TAZ-TEAD target genes. […] The results confirmed the intracellular on-target activity of our potent compounds for inhibiting STK3 and STK4 activity and targeting gene expression in the Hippo signaling pathway.

The mark [11] stands for this setting: ADP-Glo, 50 μM ATP, read-out: STK4 IC50.
The mark [12] stands for this setting: NanoBRET, transfected HEK293 cells, 2 h, read-out: STK3: IC50.

Structures are written as SMILES. pIC50: −log10 of the molar value. A value given as a limit tells only on which side of the number the result lay.

T2 sequence (Q13188 whole entry, the tested form may be a part): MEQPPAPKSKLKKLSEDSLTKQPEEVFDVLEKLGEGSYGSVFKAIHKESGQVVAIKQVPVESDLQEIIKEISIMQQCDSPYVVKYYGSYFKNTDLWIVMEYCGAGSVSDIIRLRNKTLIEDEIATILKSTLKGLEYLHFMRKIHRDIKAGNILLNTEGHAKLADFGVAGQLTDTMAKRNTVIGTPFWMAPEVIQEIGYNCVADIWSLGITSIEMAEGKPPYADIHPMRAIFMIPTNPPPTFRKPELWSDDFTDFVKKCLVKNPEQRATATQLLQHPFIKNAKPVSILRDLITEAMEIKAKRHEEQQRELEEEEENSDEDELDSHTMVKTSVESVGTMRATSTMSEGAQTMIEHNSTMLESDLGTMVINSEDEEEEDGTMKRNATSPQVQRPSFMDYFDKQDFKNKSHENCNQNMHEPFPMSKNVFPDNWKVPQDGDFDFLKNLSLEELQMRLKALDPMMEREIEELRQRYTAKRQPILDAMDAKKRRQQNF
T1 sequence (Q13043 whole entry): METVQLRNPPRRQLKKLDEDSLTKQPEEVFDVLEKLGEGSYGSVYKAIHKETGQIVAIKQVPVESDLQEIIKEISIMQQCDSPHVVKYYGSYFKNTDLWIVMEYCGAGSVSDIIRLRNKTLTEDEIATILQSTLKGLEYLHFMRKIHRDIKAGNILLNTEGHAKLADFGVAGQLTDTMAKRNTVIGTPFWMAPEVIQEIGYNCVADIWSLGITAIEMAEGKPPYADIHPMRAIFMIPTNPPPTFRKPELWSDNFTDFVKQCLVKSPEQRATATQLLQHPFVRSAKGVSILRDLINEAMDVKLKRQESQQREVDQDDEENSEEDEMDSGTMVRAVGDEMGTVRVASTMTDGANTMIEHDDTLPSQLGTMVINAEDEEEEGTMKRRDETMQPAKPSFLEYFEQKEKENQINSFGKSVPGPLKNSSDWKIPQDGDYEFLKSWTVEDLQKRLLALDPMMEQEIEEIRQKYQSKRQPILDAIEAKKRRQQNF
Sequence of LRRK2 (Q5S007 whole entry, species assumed, the tested form may be a part): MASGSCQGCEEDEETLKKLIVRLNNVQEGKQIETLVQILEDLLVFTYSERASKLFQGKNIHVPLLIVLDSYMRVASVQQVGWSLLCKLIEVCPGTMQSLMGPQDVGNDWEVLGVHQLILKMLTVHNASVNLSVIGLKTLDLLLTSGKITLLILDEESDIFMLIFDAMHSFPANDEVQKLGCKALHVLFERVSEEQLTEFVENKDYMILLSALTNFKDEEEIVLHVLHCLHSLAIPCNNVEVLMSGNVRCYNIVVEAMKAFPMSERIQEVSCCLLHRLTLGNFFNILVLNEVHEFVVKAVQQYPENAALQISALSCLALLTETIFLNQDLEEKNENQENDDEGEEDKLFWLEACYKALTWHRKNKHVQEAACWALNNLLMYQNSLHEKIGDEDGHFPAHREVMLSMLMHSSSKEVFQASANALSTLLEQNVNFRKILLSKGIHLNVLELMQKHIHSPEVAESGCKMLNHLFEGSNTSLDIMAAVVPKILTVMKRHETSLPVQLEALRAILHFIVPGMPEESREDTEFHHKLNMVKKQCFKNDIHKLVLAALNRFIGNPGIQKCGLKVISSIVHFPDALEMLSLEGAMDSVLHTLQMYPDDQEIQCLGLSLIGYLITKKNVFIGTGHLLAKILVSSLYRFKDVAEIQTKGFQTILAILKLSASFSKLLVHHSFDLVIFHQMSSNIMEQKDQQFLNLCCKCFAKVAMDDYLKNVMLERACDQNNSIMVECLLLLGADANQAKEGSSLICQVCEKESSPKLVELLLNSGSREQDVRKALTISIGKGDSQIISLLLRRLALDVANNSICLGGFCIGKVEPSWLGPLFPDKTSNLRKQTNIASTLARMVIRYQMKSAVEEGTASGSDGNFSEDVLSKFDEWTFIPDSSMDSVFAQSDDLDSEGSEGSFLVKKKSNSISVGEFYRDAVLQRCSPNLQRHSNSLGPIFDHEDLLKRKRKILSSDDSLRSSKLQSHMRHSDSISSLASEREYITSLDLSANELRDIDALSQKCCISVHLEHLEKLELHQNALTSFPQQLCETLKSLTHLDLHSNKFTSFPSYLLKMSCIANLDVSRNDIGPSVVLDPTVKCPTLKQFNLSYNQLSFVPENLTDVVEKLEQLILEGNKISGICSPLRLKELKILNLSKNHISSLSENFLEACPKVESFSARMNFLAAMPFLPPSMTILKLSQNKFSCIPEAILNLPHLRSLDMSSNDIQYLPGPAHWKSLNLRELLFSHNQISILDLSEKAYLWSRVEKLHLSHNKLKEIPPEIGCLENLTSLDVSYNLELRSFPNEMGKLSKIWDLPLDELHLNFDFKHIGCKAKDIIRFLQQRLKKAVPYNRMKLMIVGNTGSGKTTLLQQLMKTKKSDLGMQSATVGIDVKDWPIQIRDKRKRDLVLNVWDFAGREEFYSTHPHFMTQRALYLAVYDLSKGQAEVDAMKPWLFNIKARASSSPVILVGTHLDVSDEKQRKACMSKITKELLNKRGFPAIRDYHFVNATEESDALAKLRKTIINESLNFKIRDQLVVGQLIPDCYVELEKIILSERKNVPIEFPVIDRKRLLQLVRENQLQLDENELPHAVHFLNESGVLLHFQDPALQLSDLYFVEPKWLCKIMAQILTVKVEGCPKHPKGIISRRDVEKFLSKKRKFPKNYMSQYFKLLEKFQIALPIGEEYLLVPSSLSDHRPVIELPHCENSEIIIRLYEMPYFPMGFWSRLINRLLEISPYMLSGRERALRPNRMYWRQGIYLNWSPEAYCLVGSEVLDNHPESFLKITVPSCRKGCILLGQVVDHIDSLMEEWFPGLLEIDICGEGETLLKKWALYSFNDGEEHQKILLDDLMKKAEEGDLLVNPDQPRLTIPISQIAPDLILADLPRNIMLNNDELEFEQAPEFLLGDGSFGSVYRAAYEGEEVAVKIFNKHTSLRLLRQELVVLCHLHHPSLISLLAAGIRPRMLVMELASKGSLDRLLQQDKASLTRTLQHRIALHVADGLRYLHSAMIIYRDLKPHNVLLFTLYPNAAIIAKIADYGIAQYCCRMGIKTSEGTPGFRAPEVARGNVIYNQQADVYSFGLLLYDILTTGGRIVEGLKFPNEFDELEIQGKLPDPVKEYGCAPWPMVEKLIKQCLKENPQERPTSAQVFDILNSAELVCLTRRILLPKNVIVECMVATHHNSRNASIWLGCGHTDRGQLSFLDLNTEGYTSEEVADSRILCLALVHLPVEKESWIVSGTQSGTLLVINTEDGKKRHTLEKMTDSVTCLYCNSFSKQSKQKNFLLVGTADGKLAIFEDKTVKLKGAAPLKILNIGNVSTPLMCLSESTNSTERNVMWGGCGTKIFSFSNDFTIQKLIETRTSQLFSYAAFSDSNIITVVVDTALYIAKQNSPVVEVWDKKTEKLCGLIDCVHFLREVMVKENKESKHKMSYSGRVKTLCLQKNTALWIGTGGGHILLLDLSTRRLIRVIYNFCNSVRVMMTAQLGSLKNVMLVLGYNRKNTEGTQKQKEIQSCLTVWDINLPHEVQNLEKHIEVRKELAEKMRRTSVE

On to `CN1C(=O)c2sccc2N(C)c2nc(Nc3ccc(S(N)(=O)=O)cc3)ncc21` [XMU-MP-1], for which, in [1], the “off-target activity in vitro” value is “notable off-target activity”.

With `CN(CCO)c1ncnc2[nH]cc(-c3cccc(Cl)c3)c12` [Compound 108, 2-((5-(3-chlorophenyl)-7H-pyrrolo[2,3-d]pyrimidin-4-yl)(methyl)amino)ethan-1-ol], the pIC50 in [2] (setting [11]), in series [3], in series [4] (setting [12]) and in series [5] was over 6.00 throughout. The “LRRK2: IC50” value in [6] was “B (B: IC50 is >2000 nM and <1000 nM)”. The “relative expression level of phosphorylated MOB1” value (“relative expression level” below) in [7] is “significant reduction”. In addition, the concentration at 30 min in series [8] worked out at 7.3 µM. For the same molecule, in series [8], the concentration at 1 h worked out at 0.9 µM.

For the molecule `Clc1cccc(-c2c[nH]c3ncnc(N4CCCCC4)c23)c1` [Compound 15, 5-(3-Chlorophenyl)-4-(piperidin-1-yl)-7H-pyrrolo[2,3-d]pyrimidine], the pIC50 in series [3] is over 6.00. Further, in [9], the thermal shift (ΔTm) at 10 µM amounted to 8.3 °C. This molecule gave a pIC50 in [4] of 5.30 to 6.00. The “LRRK2: IC50” value in series [6] is “B (B: IC50 is >2000 nM and <1000 nM)”. In [8], this molecule gave a concentration at 30 min of 3.7 µM and a concentration at 1 h of 6.5 µM.

For the molecule `CC1(N)CCN(c2ncnc3[nH]cc(-c4cccc(Cl)c4)c23)CC1` [Compound 102, 1-(5-(3-chlorophenyl)-7H-pyrrolo[2,3-d]pyrimidin-4-yl)-4-methylpiperidin-4-amine], in series [3], the pIC50 is over 6.00. For the same molecule, in [8], the concentration at 30 min came to 1.4 µM and the concentration at 1 h was 15.9 µM.

In series [6], `CNC1CCN(c2ncnc3[nH]cc(-c4cccc(Cl)c4)c23)CC1` [Compound 106, 1-(5-(3-chlorophenyl)-7H-pyrrolo[2,3-d]pyrimidin-4-yl)-N-methylpiperidin-4-amine] had a negative-log IC50 (pIC50) of at most 5.70. In series [8], this molecule had a concentration at 30 min of 2.2 µM and a concentration at 1 h of 7.8 µM.

On to `Cc1ccccc1-c1c[nH]c2ncnc(N3CCOCC3)c12` [Compound 2, 4-(5-(o-Tolyl)-7H-pyrrolo[2,3-d]pyrimidin-4-yl)morpholine], for which the pIC50 is 5.30 to 6.00 in series [2] and under 5.30 in series [3]. Besides, the “relative expression level” value in [7] was “significant reduction”.

Regarding `Cc1cccc(-c2c[nH]c3ncnc(N4CCOCC4)c23)c1` [Compound 5, 4-(5-(m-Tolyl)-7H-pyrrolo[2,3-d]pyrimidin-4-yl)morpholine], the pIC50 in series [3] was over 6.00; in series [4] (setting [12]) it was over 6.00; in series [6], at least 6.00. This molecule also had a concentration at 30 min in series [8] of 2.8 µM. This molecule also gave a concentration at 1 h in series [8] of 7.3 µM.

In the case of `OCCCNc1ncnc2[nH]cc(-c3cccc(Cl)c3)c12` [Compound 119, 3-((5-(3-chlorophenyl)-7H-pyrrolo[2,3-d]pyrimidin-4-yl)amino)propan-1-ol], the figures for the pIC50 in series [3], in series [4] (setting [12]) and in series [6] were over 6.00, over 6.00 and at most 5.70, respectively. For the same molecule, the concentration at 30 min in series [8] worked out at 4.5 µM. In [8], this molecule yielded a concentration at 1 h of 0.003 µM.

In the case of `CC(CO)CN(C)c1ncnc2[nH]cc(-c3cccc(Cl)c3)c12` (stereo not shown) [Compound 121, 3-((5-(3-chlorophenyl)-7H-pyrrolo[2,3-d]pyrimidin-4-yl)(methyl)amino)-2-methylpropan-1-ol], the pIC50 in [2] (setting [11]) is over 6.00; in [3], over 6.00; in series [4] (setting [12]) it was over 6.00; in series [5], over 6.00; in [6] it was at most 5.70. Also, in series [7], the “relative expression level” value is recorded as “significant reduction”. This molecule showed a concentration at 30 min in series [8] of 1.8 µM. Moreover, in [8], the concentration at 1 h amounted to 0.006 µM.

Take `Fc1cccc(-c2c[nH]c3ncnc(N4CCOCC4)c23)c1` [Compound 7, 4-(5-(3-Fluorophenyl)-7H-pyrrolo[2,3-d]pyrimidin-4-yl)morpholine]: the pIC50 in [3] is over 6.00; in [4] (setting [12]), over 6.00; in series [6], at least 6.00. Moreover, the shift in melting temperature (ΔTm) at 10 µM in series [9] came to 8.4 °C. For the same molecule, the “YAP/TAZ-TEAD activity (luciferase reporter)” value in series [10] was “marked increase”. The concentration at 30 min in series [8] came out at 6 µM. In [8], this molecule registered a concentration at 1 h of 14.9 µM.

Broadly, the pIC50 is the IC50 on a negative log10 scale, so that one unit is a factor of ten. Usually ΔTm stands for the shift of the melting midpoint relative to a reference.
